Literature values as cited in patent US20190175566A1, “ANTI-TUMOR COCKTAIL COMPRISING AN ANTI-TUMOR AGENT SELECTIVE FOR TUMOR ACIDITY, AN ANTIOXIDANT, AND A P-GLYCOPROTEIN INHIBITOR” (ARION TECNOLOGIA BRASIL- GESTAO DE ATIVOS S/A, priority 2016, published 2019).
Like-named read-outs stand apart in the source and are kept apart here.

Experiments:
[1] = in mice, intravenous route

## O=C(O)c1c2ccccc2nc2ccccc12 [9-acridine carboxylic acid]
Route not given
  toxicity (LD50): 240 mg/kg
Via intraperitoneal application (subcutaneously)
  toxicity (LD50): 240 mg/kg

## COC1=C(OC)C(=O)C(C/C=C(\C)CC/C=C(\C)CC/C=C(\C)CC/C=C(\C)CC/C=C(\C)CC/C=C(\C)CC/C=C(\C)CC/C=C(\C)CC/C=C(\C)CCC=C(C)C)=C(C)C1=O [Co-Q10, Coenzyme Q10]
orally
  toxicity (LD50): ~20000 mg/kg

## COc1cc2c(cc1OC)CN(CCc1ccc(NC(=O)c3cc(OC)c(OC)cc3NC(=O)c3cnc4ccccc4c3)cc1)CC2 [Tariquidar, tariquidar]
[1]
  toxicity (LD50): 300 mg/kg
